Measured values as given in patent publication US9242984B2, “Pyrazolyl derivatives as Syk inhibitors” (Merck Sharp & Dohme Corp., priority 2012, dated 2016).

Molecular target: T1, recombinant human Syk (GST-hSyk fusion protein) (Homo sapiens, UniProt P43405)
T1 construct: purchased Carna Biosciences 08-176
Assay: Homogeneous Time-Resolved Fluorescence (HTRF) assay for the recombinant human Syk enzyme
Type: biochemical
Conditions: IC50 class; 10-dose titration, 25 μM ATP; read-out: rhSYK Activity
How it was run: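 GST-hSyk (5 pM) preincubated 10 min with compound (0.1% DMSO) in 15 mM Tris-HCl pH 7.5, 2 mM DTT; reaction started with 250 nM biotinylated peptide, 5 mM Mg, 25 μM ATP, 45 min, room temperature. EDTA quench, Eu-anti-phosphotyrosine/SA-APC HTRF read after 30 min; IC50 from 10-dose titration (10 μM–0.508 nM), four-parameter fit.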

Structure (SMILES) | IC50 [nM]
Cc1cc(Nc2nccc(C(F)F)n2)cc(-c2cnn(CC3CC(=O)NC3=O)c2)c1 (stereo not drawn) [Example 2.73, 3-{[4-(3-{[4-(difluoromethyl)pyrimidin-2-yl]amino}-5-methylphenyl)-1H-pyrazol-1-yl]methyl}pyrrolidine-2,5-dione] | ≤ 100
Cc1cc(Nc2nccc(C(F)F)n2)cc(-c2cnn(CC3OC(=O)NC3=O)c2)c1 (stereo not drawn) [Example 2.74, 5-{[4-(3-{[4-(difluoromethyl)pyrimidin-2-yl]amino}-5-methylphenyl)-1H-pyrazol-1-yl]methyl}-1,3-oxazolidine-2,4-dione] | ≤ 100
Cc1cc(Nc2nccc(C(F)F)n2)cc(-c2cnn(CC3OC(=O)NC3=O)c2)c1 (stereo not drawn) [Example 2.75, 5-{[4-(3-{[4-(difluoromethyl)pyrimidin-2-yl]amino}-5-methylphenyl)-1H-pyrazol-1-yl]methyl}-1,3-oxazolidine-2,4-dione] | ≤ 100
Cc1cc(Nc2nccc(C(F)F)n2)cc(-c2cnn(CC3CC(=O)NC3C)c2)c1 (stereo not drawn) [Example 2.76, 4-{[4-(3-{[4-(difluoromethyl)pyrimidin-2-yl]amino}-5-methylphenyl)-1H-pyrazol-1-yl]methyl}-5-methylpyrrolidin-2-one] | ≤ 100
Cc1cc(Nc2nccc(C(F)F)n2)cc(-c2cnn(CC3(C)CNC(=O)C3)c2)c1 (stereo not drawn) [Example 2.77, 4-{[4-(3-{[4-(difluoromethyl)pyrimidin-2-yl]amino}-5-methylphenyl)-1H-pyrazol-1-yl]methyl}-4-methylpyrrolidin-2-one] | ≤ 100
Cc1cc(Nc2nccc(C(F)F)n2)cc(-c2cnn(CC3CCNC(=O)O3)c2)c1 (stereo not drawn) [Example 2.78, 6-{[4-(3-{[4-(difluoromethyl)pyrimidin-2-yl]amino}-5-methylphenyl)-1H-pyrazol-1-yl]methyl}-1,3-oxazinan-2-one] | ≤ 100
Cc1cc(Nc2nccc(C(F)F)n2)cc(-c2cnn(CC3CC(=O)NC3C)c2)c1 (stereo not drawn) [Example 2.79, 4-{[4-(3-{[4-(difluoromethyl)pyrimidin-2-yl]amino}-5-methylphenyl)-1H-pyrazol-1-yl]methyl}-5-methylpyrrolidin-2-one] | ≤ 100
Cc1cc(Nc2nccc(C(F)F)n2)cc(-c2cnn(CC3(C)CNC(=O)C3)c2)c1 (stereo not drawn) [Example 2.80, 4-{[4-(3-{[4-(difluoromethyl)pyrimidin-2-yl]amino}-5-methylphenyl)-1H-pyrazol-1-yl]methyl}-4-methylpyrrolidin-2-one] | ≤ 100
Cc1cc(Nc2nccc(C(F)F)n2)cc(-c2cnn(CC3CCNC(=O)O3)c2)c1 (stereo not drawn) [Example 2.81, 6-{[4-(3-{[4-(difluoromethyl)pyrimidin-2-yl]amino}-5-methylphenyl)-1H-pyrazol-1-yl]methyl}-1,3-oxazinan-2-one] | ≤ 100
Cc1cc(Nc2nccc(C(F)F)n2)cc(-c2cnn(CCN)c2)c1 [Example 2.82, N-{3-[1-(2-aminoethyl)-1H-pyrazol-4-yl]-5-methylphenyl}-4-(difluoromethyl)pyrimidin-2-amine] | ≤ 100
Cc1cc(Nc2nccc(C(F)F)n2)cc(-c2cnn(C[C@@H]3CNCCO3)c2)c1 [Example 2.83, 4-(difluoromethyl)-N-(3-methyl-5-{1-[(2S)-morpholin-2-ylmethyl]-1H-pyrazol-4-yl}phenyl)pyrimidin-2-amine] | ≤ 100
Cc1cc(Nc2nccc(C(F)F)n2)cc(-c2cnn(C[C@H]3CNCCO3)c2)c1 [Example 2.84, 4-(difluoromethyl)-N-(3-methyl-5-{1-[(2R)-morpholin-2-ylmethyl]-1H-pyrazol-4-yl}phenyl)pyrimidin-2-amine] | ≤ 100
Cc1cc(Nc2nccc(C(F)F)n2)cc(-c2cnn(CC(C)(C)N)c2)c1 [Example 2.85, N-{3-[1-(2-amino-2-methylpropyl)-1H-pyrazol-4-yl]-5-methylphenyl}-4-(difluoromethyl)pyrimidin-2-amine] | ≤ 100
C[C@@](O)(CO)Cn1cc(-c2cccc(Nc3nccc(C(F)(F)F)n3)c2)cn1 [Example 2.86, (2S)-2-methyl-3-[4-(3-{[4-(trifluoromethyl)pyrimidin-2-yl]amino}phenyl)-1H-pyrazol-1-yl]propane-1,2-diol] | ≤ 100
Cc1cc(Nc2nccc(C(C)O)n2)cc(-c2cnn(C[C@](C)(O)CO)c2)c1 (stereo partly drawn) [Example 2.87, (2S)-3-[4-(3-{[4-(1-hydroxyethyl)pyrimidin-2-yl]amino}-5-methylphenyl)-1H-pyrazol-1-yl]-2-methylpropane-1,2-diol] | ≤ 100
COc1ccnc(Nc2cc(C)cc(-c3cnn(C[C@](C)(O)CO)c3)c2)n1 [Example 2.88, (2S)-3-(4-{3-[(4-methoxypyrimidin-2-yl)amino]-5-methylphenyl}-1H-pyrazol-1-yl)-2-methylpropane-1,2-diol] | ≤ 100
COc1nc(Nc2cc(C)cc(-c3cnn(C[C@](C)(O)CO)c3)c2)ncc1F [Example 2.89, (2S)-3-(4-{3-[(5-fluoro-4-methoxypyrimidin-2-yl)amino]-5-methylphenyl}-1H-pyrazol-1-yl)-2-methylpropane-1,2-diol] | ≤ 100
Cc1cc(Nc2nccc(C3CC3)n2)cc(-c2cnn(C[C@](C)(O)CO)c2)c1 [Example 2.90, (2S)-3-(4-{3-[(4-cyclopropylpyrimidin-2-yl)amino]-5-methylphenyl}-1H-pyrazol-1-yl)-2-methylpropane-1,2-diol] | ≤ 100
C[C@@](O)(CO)Cn1cc(-c2cc(F)cc(Nc3nccc(C(F)(F)F)n3)c2)cn1 [Example 2.91, (2S)-3-[4-(3-fluoro-5-{[4-(trifluoromethyl)pyrimidin-2-yl]amino}phenyl)-1H-pyrazol-1-yl]-2-methylpropane-1,2-diol] | ≤ 100
C[C@@](O)(CO)Cn1cc(-c2cccc(Nc3nccc(C(F)F)n3)c2)cn1 [Example 2.92, (2S)-3-[4-(3-{[4-(difluoromethyl)pyrimidin-2-yl]amino}phenyl)-1H-pyrazol-1-yl]-2-methylpropane-1,2-diol] | ≤ 100

More lines, now with the values ahead:

IC50 [nM] | Structure (SMILES)
≤ 100 | Cc1cc(Nc2nccc(C(F)(F)F)n2)cc(-c2cnn(C3CCC(C(=O)O)C(C)(C)C3)c2)c1 (stereo not drawn) [Example 2.59, 2,2-dimethyl-4-[4-(3-methyl-5-{[4-(trifluoromethyl)pyrimidin-2-yl]amino}phenyl)-1H-pyrazol-1-yl]cyclohexanecarboxylic acid]
≤ 100 | Cc1cc(Nc2nccc(C(F)F)n2)cc(-c2cnn(C3CCC(C(=O)O)CC3)c2)c1 (stereo not drawn) [Example 2.60, 4-[4-(3-{[4-(difluoromethyl)pyrimidin-2-yl]amino}-5-methylphenyl)-1H-pyrazol-1-yl]cyclohexanecarboxylic acid]
≤ 100 | Cc1cc(Nc2nccc(C(F)F)n2)cc(-c2cnn([C@H]3CC[C@H](C(=O)O)CC3)c2)c1 [Example 2.61, trans-4-[4-(3-{[4-(difluoromethyl)pyrimidin-2-yl]amino}-5-methylphenyl)-1H-pyrazol-1-yl]cyclohexanecarboxylic acid]
≤ 100 | Cc1cc(Nc2nccc(C(F)F)n2)cc(-c2cnn(CC3CNC(=O)O3)c2)c1 (stereo not drawn) [Example 2.63, 5-{[4-(3-{[4-(difluoromethyl)pyrimidin-2-yl]amino}-5-methylphenyl)-1H-pyrazol-1-yl]methyl}-1,3-oxazolidin-2-one]
≤ 100 | Cc1cc(Nc2nccc(C(F)F)n2)cc(-c2cnn(CC3CNC(=O)O3)c2)c1 (stereo not drawn) [Example 2.64, 5-{[4-(3-{[4-(difluoromethyl)pyrimidin-2-yl]amino}-5-methylphenyl)-1H-pyrazol-1-yl]methyl}-1,3-oxazolidin-2-one]
≤ 100 | O=C1NCC(Cn2cc(-c3cccc(Nc4nccc(C(F)F)n4)c3)cn2)O1 (stereo not drawn) [Example 2.65, 5-{[4-(3-{[4-(difluoromethyl)pyrimidin-2-yl]amino}phenyl)-1H-pyrazol-1-yl]methyl}-1,3-oxazolidin-2-one]
≤ 100 | O=C1NCC(Cn2cc(-c3cccc(Nc4nccc(C(F)F)n4)c3)cn2)O1 (stereo not drawn) [Example 2.66, 5-{[4-(3-{[4-(difluoromethyl)pyrimidin-2-yl]amino}phenyl)-1H-pyrazol-1-yl]methyl}-1,3-oxazolidin-2-one]
≤ 100 | Cc1cc(Nc2nccc(C(F)F)n2)cc(-c2cnn(C(C)C3CNC(=O)C3)c2)c1 (stereo not drawn) [Example 2.67, 4-{1-[4-(3-{[4-(difluoromethyl)pyrimidin-2-yl]amino}-5-methylphenyl)-1H-pyrazol-1-yl]ethyl}pyrrolidin-2-one]
≤ 100 | Cc1cc(Nc2nccc(C(F)F)n2)cc(-c2cnn(C(C)C3CNC(=O)C3)c2)c1 (stereo not drawn) [Example 2.68, 4-{1-[4-(3-{[4-(difluoromethyl)pyrimidin-2-yl]amino}-5-methylphenyl)-1H-pyrazol-1-yl]ethyl}pyrrolidin-2-one]
≤ 100 | Cc1cc(Nc2nccc(C(F)F)n2)cc(-c2cnn(C(C)C3CNC(=O)C3)c2)c1 (stereo not drawn) [Example 2.69, 4-{1-[4-(3-{[4-(difluoromethyl)pyrimidin-2-yl]amino}-5-methylphenyl)-1H-pyrazol-1-yl]ethyl}pyrrolidin-2-one]
≤ 100 | Cc1cc(Nc2nccc(C(F)F)n2)cc(-c2cnn(C(C)C3CNC(=O)C3)c2)c1 (stereo not drawn) [Example 2.70, 4-{1-[4-(3-{[4-(difluoromethyl)pyrimidin-2-yl]amino}-5-methylphenyl)-1H-pyrazol-1-yl]ethyl}pyrrolidin-2-one]
≤ 100 | Cc1cc(Nc2nccc(C(F)F)n2)cc(-c2cnn(CC3CC(=O)NC3=O)c2)c1 (stereo not drawn) [Example 2.71, 3-{[4-(3-{[4-(difluoromethyl)pyrimidin-2-yl]amino}-5-methylphenyl)-1H-pyrazol-1-yl]methyl}pyrrolidine-2,5-dione]
≤ 100 | Cc1cc(Nc2nccc(C(F)F)n2)cc(-c2cnn(Cc3cc[nH]c(=O)c3)c2)c1 [Example 2.72, 4-{[4-(3-{[4-(difluoromethyl)pyrimidin-2-yl]amino}-5-methylphenyl)-1H-pyrazol-1-yl]methyl}pyridin-2(1H)-one]
